Laboratory results published in paper PMC4279406, “Simultaneous targeting of PI3Kδ and a PI3Kδ-dependent MEK1/2-Erk1/2 pathway for therapy in pediatric B-cell acute lymphoblastic leukemia” (Oncotarget, 2014).

Tests used:
Assay type in all cases: cell-based, human
SU-DHL-6 cells = assay: Signaling by Western blot
Protocol: (§1) Raji and SU-DHL-6 cells were treated with X-370 for 1 h (left panel) or treated with 0.5 μM X-370 for indicated times (middle panel). Right panel, Raji cells were incubated in fresh medium following treatment with 0.5 μM X-370 for 1 h. Indicated proteins were detected. (B) Raji-R (the rituximab-resistant derivatives of Raji cells) cells were resistant to X-370. The activity of X-370 on the proliferation of Raji parent and Raji-R cells was determined by CCK-8 assay as described in the methods section. (C) X-370 blocked phosphorylation of Akt but not Erk1/2 in Raji-R cells. Raji-R cells were treated with X-370 for 1h and indicated proteins were detected. Data shown are representative from three independent experiments.
(§2) Figure 5 Inhibition of Erk1/2 phosphorylation by X-370 contributed to its antiproliferative activity (A-C) X-370 inhibited Erk1/2 phosphorylation via PI3K-PDK1-MEK1/2 cascade but not the PI3K-Gab1 positive feedback loop. (A) Raji and SU-DHL-6 cells were exposed to 1 μM X370 for 3 h and protein fraction from cellular membrane was separated using Native Membrane Protein Extraction Kit and probed. WCL: whole cell lysate. (B) Inhibition of PDK1 or MEK1/2 abrogated Erk1/2 phosphorylation. Cells were treated with pharmacological inhibitors of Raf (AZ 628, PLX4032), MEK1/2 (AZD6244), p90RSK (BI-D1870), PI3Kδ (X-370), PDK1 (BX-912), Akt (MK-2206), mTOR (AZD8055) or mTORC1 (Rapamycin) respectively and indicated proteins were detected. (C) X-370 disrupted the association between PDK1 and MEK1/2. Raji cells were treated with 1 μM X370 for 1 h and cell lysates were immunoprecipitated with anti-PDK1 antibody and indicated proteins were detected. WCL: whole cell lysate. (D-F) Inhibition of Erk1/2 phosphorylation was required for the anti-proliferative activity of X-370. (D) Raji cells ectopically expressing a constitutively activated phospho-mimic MEK1 mutant (MEK1 […] or MEK DD) were incubated with X-370 or AZD6244 for 1 h and then subjected to Western blot. (E) Raji and Raji MEK DD cells were treated with X-370 for 72 h and cell proliferation was detected by CCK-8 assay. (F) Raji MEK DD cells were treated with X-370 and AZD6244 and cell proliferation was detected by CCK-8 assay. Data were show as mean ± SD of three independent experiments. *: p < 0.05 determined by t-tests at each data point. […]
(§3) Cells were treated as indicated conditions and then subjected to lysate to perform standard Western blot as described previously1. Briefly, whole-cell lysates and SDS-loading buffer diluted cell fractions were analyzed on SDS-PAGE gels. Transfer to nitrocellulose membranes, nonfat milk blocking, probing with indicated primary antibodies and the corresponding HRP-conjugated second antibodies.
(§4) Chemiluminescence were performed and captured using ImageQuant LAS 4000 (GE healthcare Life Sciences, Piscataway, NJ, USA) and band intensity was measure both with ImageQuant™ TL (GE Healthcare Life Sciences) 2. […]
(§5) (also on this page, place not known: PI3Kδ -dependent MEK1/2 - B -cell previously 1. whole -cell SDS -loading SDS -PAGE HRP -conjugated (G E A B Val828 Trp760 Thr750 Met752 Tyr813 affinity pocket specificity pocket hinge Glu826 CAL-101 X-370) […]
(§6) (1 picture or pasted object on this page, not shown here)

Raji cells [1] = assay: Signaling by Western blot; details: Raji
Protocol: as §1, §2, §3, §4, §5, §6

Raji cells [2] = assay: BrdU incorporation assay; details: 1 μM, 24 h
Protocol: Simultaneous targeting of PI3Kδ and a PI3Kδ-dependent MEK1/2-Erk1/2 pathway for therapy in pediatric B-cell acute lymphoblastic […]
as §3
Chemiluminescence were performed and captured using ImageQuant LAS 4000 (GE healthcare Life Sciences, Piscataway, NJ, USA) and band intensity was measure both with ImageQuant™ TL (GE Healthcare Life Sciences) 2.
Caspase 3/7 activity assay
Raji cells were treated with or without X-370 at 1 μM, 5μM and 10 μM for 24, 48 and 72 hours, thenwere measured using the Caspase-Glo® 3/7 Assay (Promega, US) following the protocol and relative caspase-3/7 activity was normalized to cell number which DMSO control was the base line.
5-bromo-2'-deoxyuridine (BrdU) incorporation Assay
5-bromo-2'-deoxyuridine (BrdU) incorporation was performed using FITC BrdU Flow Kit (BD Pharmingen, San Diego, CA) according to the provided protocol.
Figure S1;. CAL-101 docked to the crystal structure of PI3Kδ. […]

**Q.** Which “phosphorylation of Erk1/2 at T202/Y204” value (SU-DHL-6 cells; SU-DHL-6) does the source give for O=C(N1CCCC1)N1CCC(n2cnc3c(-n4c(C(F)F)nc5ccccc54)nc(N4CCOCC4)nc32)CC1 [X-370] here?
**A.** decreased in lockstep with inactivation of Akt

**Q.** What about the “phosphorylation of Akt at the membrane” value (SU-DHL-6 cells; SU-DHL-6, 1 μM, 3 h, membrane fraction) of the same compound?
**A.** abolished

**Q.** And the “concentration as low as which Akt phosphorylation was significantly reduced” value (SU-DHL-6 cells; SU-DHL-6, 1 h)?
**A.** 5 nM

**Q.** And the “reversibility of action on PI3K and Erk1/2 after compound removal” value (SU-DHL-6 cells; SU-DHL-6, 0.5 μM 1 h then drug-free medium, restoration after 15 minutes to 1 h)?
**A.** rapidly reversible

**Q.** And the “phosphorylation of Erk1/2 at T202/Y204” value (Raji cells [1])?
**A.** decreased in lockstep with inactivation of Akt

**Q.** What about the “phosphorylation of MEK1/2 at Ser217/221” value (Raji cells [1]; 1 μM, 1 h) of the same compound?
**A.** inhibited

**Q.** What about the “phosphorylation of Akt at the membrane” value (Raji cells [1]; 1 μM, 3 h, membrane fraction) of the same compound?
**A.** abolished

**Q.** What about the “concentration as low as which Akt phosphorylation was significantly reduced” value (Raji cells [1]; 1 h) of the same compound?
**A.** 5 nM

**Q.** And the “reversibility of action on PI3K and Erk1/2 after compound removal” value (Raji cells [1]; 0.5 μM 1 h then drug-free medium, restoration after 15 minutes to 1 h)?
**A.** rapidly reversible

**Q.** What about the “DNA synthesis (BrdU incorporation)” value (Raji cells [2]) of the same compound?
**A.** readily inhibited
